Measured values published in patent publication US6562830B1, “Method of treating a patient having precancerous lesions with phenyl quinazolinone derivatives” (Cell Pathways, Inc., priority 1999, dated 2003).

Structure (SMILES) | melting point [°C]
CCCOc1ccccc1-c1nc2cc(NC)ccc2c(=O)[nH]1 [Example 27, 7-Methylamino-2-(2-Propoxyphenyl)-4(3H)-quinazolinone] | 204 to 205
CCCOc1ccccc1-c1nc2cc(N)ccc2c(=O)[nH]1 [Example 26, 7-Amino-2-(2-Propoxyphenyl)-4(3H)-quinazolinone] | 185
